“And” between values parts separate entries of the source, which are not always exact repeats. Identical values can stand only once.
Legend:
[1] = system: pediatric subjects with moderate atopic dermatitis; assay: Phase IIIb trial, efficacy by Investigator global assessment (IGA) score on day 43; format: in vivo, human; conditions: for Efficacy (IGA): number of patients that experienced efficacy / Efficacy (IGA): percent of patients that experienced efficacy: IGA score of 0 or 1 on day 43
Text: The genetic locus was identified in a Phase IIIb trial that was designed as a head to head comparison of pimecrolimus cream 1% and tacrolimus ointment 0.03%. The six-week investigator-blinded trial of pediatric subjects with moderate atopic dermatitis explored the incidence of local application site reactions induced by the two topical macrolactams, as well as their efficacy, safety and cosmetic acceptability. Blood samples for pharmacogenetic analysis were collected from consenting participants in the clinical trial, to define a genetic basis for response to either treatment. Statistical analysis. Investigator global assessment (IGA) scores were used as the primary marker of efficacy in the pharmacogenetic studies. IGA scores at the end of the Investigator Blinded phase of the trial (Day 43) were used as the main time-point for comparison. Last observation carried forward imputations were only required for one subject at day 43. In this case, there was no IGA score available after Day 29, and the score on this day was used in place of a day 43 IGA score. IGA scores were re-coded, as was done to assess efficacy in the trial itself. An IGA score of 0 or 1 was considered successful treatment and IGA scores of 2-5 were counted as treatment failure. The severity of pruritus was also used as a marker of efficacy. Pruritus scores were dichotomized into absence (score=0) or presence (score=1, 2 or 3) of pruritus. The fisher's exact model was employed to examine the genotype effect on each efficacy variable. All statistical analyses were done using SAS version 8.2 software.

[2] = system: pediatric subjects with moderate atopic dermatitis; assay: Phase IIIb trial, severity of pruritus score on day 43; format: in vivo, human
Text: The genetic locus was identified in a Phase IIIb trial that was designed as a head to head comparison of pimecrolimus cream 1% and tacrolimus ointment 0.03%. The six-week investigator-blinded trial of pediatric subjects with moderate atopic dermatitis explored the incidence of local application site reactions induced by the two topical macrolactams, as well as their efficacy, safety and cosmetic acceptability. Blood samples for pharmacogenetic analysis were collected from consenting participants in the clinical trial, to define a genetic basis for response to either treatment.
Statistical analysis. Investigator global assessment (IGA) scores were used as the primary marker of efficacy in the pharmacogenetic studies. IGA scores at the end of the Investigator Blinded phase of the trial (Day 43) were used as the main time-point for comparison. Last observation carried forward imputations were only required for one subject at day 43. In this case, there was no IGA score available after Day 29, and the score on this day was used in place of a day 43 IGA score. IGA scores were re-coded, as was done to assess efficacy in the trial itself. An IGA score of 0 or 1 was considered successful treatment and IGA scores of 2-5 were counted as treatment failure. The severity of pruritus was also used as a marker of efficacy. Pruritus scores were dichotomized into absence (score=0) or presence (score=1, 2 or 3) of pruritus. The fisher's exact model was employed to examine the genotype effect on each efficacy variable. All statistical analyses were done using SAS version 8.2 software.
Association between polymorphic markers and relief from pruritus. A secondary efficacy variable used in the trial was pruritus. An analysis was done to see if ASN60THR LTA and (−1031) TNF associated with this efficacy variable (assessed on day 43).

[3] = (−1031) TNF genotype CC, day 43
[4] = (−1031) TNF genotype CT, day 43
[5] = (−1031) TNF genotype TT, day 43
[6] = ASN60THR LTA genotype AA, day 43
[7] = ASN60THR LTA genotype AC, day 43
[8] = ASN60THR LTA genotype CC, day 43
[9] = all (−1031) TNF genotypes, day 43
[10] = all ASN60THR LTA genotypes, day 43
[11] = patients with a C allele (CC or CT) at (−1031) TNF, day 43

Q: `CC[C@@H]1/C=C(\C)C[C@H](C)C[C@H](OC)[C@H]2O[C@@](O)(C(=O)C(=O)N3CCCC[C@H]3C(=O)O[C@H](/C(C)=C/[C@@H]3CC[C@H](Cl)[C@H](OC)C3)[C@H](C)[C@@H](O)CC1=O)[C@H](C)C[C@@H]2OC` [pimecrolimus] was tested. Which “No success (IGA ≧ 2), number of individuals” value [1, 3] did it give?
A: 1

Q: And the “No success (IGA ≧ 2), percent” value [1, 3]?
A: 100%

Q: And the “Success (IGA = 0 or 1), number of individuals” value [1, 3]?
A: 0 (0%)

Q: What about the “Success (IGA = 0 or 1), percent” value [1, 3] of the same compound?
A: 0 (0%)

Q: What about the “No success (IGA ≧ 2), number of individuals” value [1, 4] of the same compound?
A: 9

Q: And the “No success (IGA ≧ 2), percent” value [1, 4]?
A: 100%

Q: What about the “Success (IGA = 0 or 1), number of individuals” value [1, 4] of the same compound?
A: 0

Q: And the “Success (IGA = 0 or 1), percent” value [1, 4]?
A: 100%

Q: What about the “No success (IGA ≧ 2), number of individuals” value [1, 5] of the same compound?
A: 4

Q: What about the “No success (IGA ≧ 2), percent” value [1, 5] of the same compound?
A: 33%

Q: What about the “Success (IGA = 0 or 1), number of individuals” value [1, 5] of the same compound?
A: 8

Q: What about the “Success (IGA = 0 or 1), percent” value [1, 5] of the same compound?
A: 67%

Q: What about the “No success (IGA ≧ 2), number of individuals” value [1, 6] of the same compound?
A: 0 (0%)

Q: What about the “No success (IGA ≧ 2), percent” value [1, 6] of the same compound?
A: 0 (0%)

Q: And the “Success (IGA = 0 or 1), number of individuals” value [1, 6]?
A: 3/3 and 3

Q: What about the “Success (IGA = 0 or 1), percent” value [1, 6] of the same compound?
A: 100%

Q: And the “No success (IGA ≧ 2), number of individuals” value [1, 7]?
A: 6

Q: What about the “No success (IGA ≧ 2), percent” value [1, 7] of the same compound?
A: 60%

Q: What about the “Success (IGA = 0 or 1), number of individuals” value [1, 7] of the same compound?
A: 4/10 and 4

Q: What about the “Success (IGA = 0 or 1), percent” value [1, 7] of the same compound?
A: 40%

Q: What about the “No success (IGA ≧ 2), number of individuals” value [1, 8] of the same compound?
A: 8

Q: And the “No success (IGA ≧ 2), percent” value [1, 8]?
A: 89%

Q: And the “Success (IGA = 0 or 1), number of individuals” value [1, 8]?
A: 1

Q: What about the “Success (IGA = 0 or 1), percent” value [1, 8] of the same compound?
A: 11%

Q: What about the “No success (IGA ≧ 2), number of individuals” value ([1]; LTB (TWT#128095) genotype AC) of the same compound?
A: 0

Q: What about the “No success (IGA ≧ 2), percent” value ([1]; LTB (TWT#128095) genotype AC) of the same compound?
A: 50%

Q: And the “Success (IGA = 0 or 1), number of individuals” value ([1]; LTB (TWT#128095) genotype AC)?
A: 1

Q: What about the “Success (IGA = 0 or 1), percent” value ([1]; LTB (TWT#128095) genotype AC) of the same compound?
A: 100%

Q: What about the “No success (IGA ≧ 2), number of individuals” value ([1]; LTB (TWT#128095) genotype CC) of the same compound?
A: 12

Q: And the “No success (IGA ≧ 2), percent” value ([1]; LTB (TWT#128095) genotype CC)?
A: 63%

Q: What about the “Success (IGA = 0 or 1), number of individuals” value ([1]; LTB (TWT#128095) genotype CC) of the same compound?
A: 7

Q: What about the “Success (IGA = 0 or 1), percent” value ([1]; LTB (TWT#128095) genotype CC) of the same compound?
A: 37%

Q: And the “Efficacy (IGA): number of patients that experienced efficacy” value ([1]; Pharmacogenomics samples)?
A: 8

Q: And the “Efficacy (IGA): percent of patients that experienced efficacy” value ([1]; Pharmacogenomics samples)?
A: 36%

Q: And the “Efficacy (IGA): number of patients that experienced efficacy” value ([1]; Trial subjects)?
A: 22

Q: And the “Efficacy (IGA): percent of patients that experienced efficacy” value ([1]; Trial subjects)?
A: 32%

Q: What about the “No success (IGA ≧ 2), number of individuals, Total” value (“No success … Total” for short) [1, 9] of the same compound?
A: 14

Q: And the “Success (IGA = 0 or 1), number of individuals, Total” value [1, 9]?
A: 8

Q: And the “No success … Total” value [1, 10]?
A: 13

Q: What about the “Success (IGA = 0 or 1), number of individuals, Total” value [1, 10] of the same compound?
A: 7

Q: And the “No success … Total” value ([1]; all LTB (TWT#128095) genotypes)?
A: 12

Q: What about the “Success (IGA = 0 or 1), number of individuals, Total” value ([1]; all LTB (TWT#128095) genotypes) of the same compound?
A: 8

Q: And the “subjects that responded to treatment (IGA)” value [1, 11]?
A: None and No patient

Q: And the “success / response rate (IGA)” value [1, 11]?
A: 0%

Q: What about the “Pruritus (day 43) score 0, percent of subjects” value ([2]; Pharmacogenomics samples) of the same compound?
A: 10%

Q: What about the “Pruritus (day 43) score 1, number of subjects” value ([2]; Pharmacogenomics samples) of the same compound?
A: 14

Q: What about the “Pruritus (day 43) score 1, percent of subjects” value ([2]; Pharmacogenomics samples) of the same compound?
A: 67%

Q: What about the “Pruritus (day 43) score 2, number of subjects” value ([2]; Pharmacogenomics samples) of the same compound?
A: 3

Q: What about the “Pruritus (day 43) score 2, percent of subjects” value ([2]; Pharmacogenomics samples) of the same compound?
A: 14%

Q: What about the “Pruritus (day 43) score 3, number of subjects” value ([2]; Pharmacogenomics samples) of the same compound?
A: 2

Q: What about the “Pruritus (day 43) score 3, percent of subjects” value ([2]; Pharmacogenomics samples) of the same compound?
A: 10%

Q: What about the “Pruritus (day 43) score 0, number of subjects” value ([2]; Trial subjects) of the same compound?
A: 9

Q: And the “Pruritus (day 43) score 0, percent of subjects” value ([2]; Trial subjects)?
A: 13%

Q: And the “Pruritus (day 43) score 1, number of subjects” value ([2]; Trial subjects)?
A: 35

Q: And the “Pruritus (day 43) score 1, percent of subjects” value ([2]; Trial subjects)?
A: 49%

Q: What about the “Pruritus (day 43) score 2, number of subjects” value ([2]; Trial subjects) of the same compound?
A: 15

Q: What about the “Pruritus (day 43) score 2, percent of subjects” value ([2]; Trial subjects) of the same compound?
A: 21%

Q: What about the “Pruritus (day 43) score 3, number of subjects” value ([2]; Trial subjects) of the same compound?
A: 10

Q: What about the “Pruritus (day 43) score 3, percent of subjects” value ([2]; Trial subjects) of the same compound?
A: 14%

From patent publication US20070155772A1, “Use of genetic polymorphisms that associate with efficacy of treatment of inflammatory disease” (priority 2003, published 2007)
